Measurements published in PubChem BioAssay AID1419 (Emory University Molecular Libraries Screening Center, 2008).
Active and inactive are the calls of the source. No rule for the calls is given here.

Assay: EBV protein-peptide binding inhibitors, dose response, biochemical, fluorescence polarization (AID 1419)
Details: cell-free protein-peptide binding, 2 h; for fold change: measured here: P channel fold over control, at 54 µM

SMILES | IC50 | fold change
Cc1ccc(S(=O)(=O)C(C#N)c2nc3ccccc3nc2N2CCCC2)cc1C (stereo not drawn) | > 54 µM (inactive) | 1.26
O=S(=O)(Nc1cc2nc3ccccc3nc2n1Cc1ccccc1)c1ccc(Cl)cc1 | 2.89 µM | 13
CCC(=O)Nc1nc2n(n1)C(c1ccc(OC)cc1)C=C(c1ccccc1)N2 (stereo not drawn) | 5.14 µM | 2.8
CN(C)c1ccc2c3c(cccc13)C(=O)N(c1ccccc1)C2=O | 4.05 µM | 11
Cc1ccc(-n2cccc2/C=C2\C(=N)N3N=C(c4ccco4)SC3=NC2=O)cc1 | > 54 µM (inactive) | 1.17
CCn1cc(C(=O)NCc2ccccn2)c(=O)c2cc(S(=O)(=O)N3CCCCC3)ccc21 | 0.74 µM | 4.52
CCCN(CCC)S(=O)(=O)c1ccc(C(=O)OCCN2C(=O)c3cccc4c(N5CCOCC5)ccc(c34)C2=O)cc1 | 1.5 µM | 96.6
COc1cc2c(cc1NC(=O)CN1C(=O)NC3(CCc4ccccc43)C1=O)oc1ccccc12 (stereo not drawn) | > 54 µM (inactive) | 0.93
COC(=O)c1cc(NC(=O)c2cccc(Cl)c2)c(=O)oc1/C=C/Nc1cc(C)cc(C)c1 | 4.37 µM | 22.8
COc1ccc(/C=C2\N=C(c3c(-c4ccccc4)noc3C)OC2=O)cc1OC | 15.9 µM | 3.56
Brc1ccc(C2=CC(c3ccco3)n3ncnc3N2)cc1 (stereo not drawn) | 1.09 µM | 6.05
Cc1nn(-c2ccccc2)c2c1C(c1ccc(O)c(O)c1)N1C(=N2)C(Nc2ccccc2)=Nc2ccccc21 (stereo not drawn) | 6.05 µM | 3.94
COc1ccccc1N1C(C)=CC(=C(C#N)c2nc3ccccc3s2)C=C1C | 9.03 µM | 27.7
O=C(O)CCC(=O)NCCC1=c2ccccc2=N/C1=C\c1c(O)n(Cc2ccc(F)cc2)c(=S)[nH]c1=O | 4.53 µM | 1.16
Cc1ccc(N2C(=O)c3cccc4c(N5CCN(C)CC5)ccc(c34)C2=O)c2cccnc12 | < 0.42 µM | 31.9
Cc1ccc(CSc2nnc3c(n2)OC2(Nc4ccccc4-3)C(=O)Nc3ccc(F)cc32)cc1 (stereo not drawn) | 6.29 µM | 16.9
CCCN1C(=O)c2cccc3c(N4CCCCC4)ccc(c23)C1=O | > 54 µM (inactive) | 15.2
Cc1ccc(C2C3=C(CCCC3=O)Nc3[nH]c(=S)[nH]c(=O)c32)cc1 (stereo not drawn) | > 54 µM (inactive) | 0.983
Clc1ccc(C2=CC(c3ccco3)n3ncnc3N2)cc1 (stereo not drawn) | 3.9 µM | 3.17
COc1ccc(OC)c(/C=c2\sc3nc(-c4cccs4)nn3c2=O)c1 | 6.04 µM | 5.71
COc1ccc(-c2cc(C(F)(F)F)c3c(n2)sc2c(O)cc(=O)[nH]c23)c(OC)c1 | 3.77 µM | 3.12
CCOc1ccc2nc(N3CCCN(C(=O)Nc4ccccc4C)CC3)c(C#N)cc2c1 | 8.65 µM | 8.56
CCOC(=O)c1c(C)[nH]c(C)c1C(=O)CSc1nc2ccccc2n1CC | > 54 µM (inactive) | 1.24
CCCc1cc(=O)n(-c2nc3ccccc3s2)[nH]1 | > 54 µM (inactive) | 0.94
CCCCOc1ccc(-c2cc(C(F)(F)F)c(C#N)c(SCC(=O)O)n2)cc1 | 6.68 µM | 4
CC(=O)c1ccc(N2C(=O)C3C(C2=O)C(C(=O)c2ccc(Cl)cc2)N2CCCC32)cc1 (stereo not drawn) | 7.19 µM | 8.74
O=C(Nc1ccc(-n2cnnn2)cc1)C1CCC1 | > 54 µM (inactive) | 0.983

SMILES | IC50 | fold change
O=c1c(O)cccc2cc(O)c(O)c(O)c12 | 2.85 µM | 1.86
O=C1/C(=N\S(=O)(=O)c2cccs2)C([n+]2cccc(Cc3ccccc3)c2)=C([O-])c2ccccc21 | 7.66 µM | 13.9
CCCCC1=CC2=C(c3ccco3)C(=O)C(C)(OC(=O)c3ccc(OC)cc3)C(=O)C2=CN1CCc1ccccn1 (stereo not drawn) | > 54 µM (inactive) | 1.16
Cc1cc(NS(=O)(=O)c2ccc(NC(=O)c3cc4cc(Br)ccc4oc3=O)cc2)no1 | 13.7 µM | 1.15
Cc1cccc(N2C(=O)c3cccc4c(N(C)CCO)ccc(c34)C2=O)c1 | < 0.42 µM | 34.9
Cc1cc(/C=C(/C#N)c2nc3ccccc3[nH]2)c(C)n1-c1cc(C(=O)O)cc(C(=O)O)c1 | 2.92 µM | 23.1
CN1CCN(C2=Nc3c(Cl)cc(Cl)c4cccc2c34)CC1 | 9.23 µM | 3.09
Cn1c(=O)c2[nH]c(-c3ccccc3)c(O)c2n(C)c1=O | < 0.42 µM | 6.43
C1=C(c2ccc(-c3ccccc3)cc2)Nc2ncnn2C1c1ccco1 (stereo not drawn) | < 0.42 µM | 15.5
NC(=O)c1c(NC(=O)Cn2nc(C(=O)O)c3ccccc3c2=O)sc2c1CCCC2 | > 54 µM (inactive) | 1.01
Cc1ccc(NC(=O)CN2C(=O)N/C(=C/c3cccn3-c3ccc(C(=O)O)cc3)C2=O)cc1 | > 54 µM (inactive) | 1.2
COc1cc(/C=C2\SC(=O)N(Cc3ccc(F)cc3)C2=O)cc([N+](=O)[O-])c1O | > 54 µM (inactive) | 0.843
O=C(Nc1nnc(-c2ccccc2Cl)o1)c1cc2cc([N+](=O)[O-])ccc2s1 | > 54 µM (inactive) | 1.09
CS(=O)(=O)n1nc(-c2ccc(Cl)cc2)nc1SCc1ccccc1 | > 54 µM (inactive) | 1.16
COc1ccc(N=Cc2cc(Cc3ccccc3Cl)cc([N+](=O)[O-])c2O)cc1OC | 13.8 µM | 2.41
CCCCCn1nc(-c2ccccc2)c2nc3ccccc3nc21 | 2.92 µM | 33.5
COc1cc(/C=C2\SC(=O)N(c3ccc(Cl)cc3)C2=O)cc([N+](=O)[O-])c1O | 4.58 µM | 1.13
Cn1nc(-c2ccc(Cl)cc2)nc2c(=O)n(C)c(=O)nc1-2 | 7.16 µM | 3.19
CC(=C/c1ccccc1)/C=N/NC(=O)c1cnccn1 | > 54 µM (inactive) | 1.1
O=C(Cn1cc2c(n1)CCCC2)NCc1ccccn1 | 25.9 µM | 1.54
O=C1NC(=O)[C@@H]2C3c4ccccc4C=CN3[C@H](C(=O)c3cccs3)[C@H]12 (stereo partly drawn) | 4.84 µM | 3.36
CSC1=N/C(=C\c2ccccc2F)C(=O)S1 | > 54 µM (inactive) | 1.05
Cn1c(=O)c(NCCc2ccccc2)c2c3c(cccc31)C(=O)c1ccccc1-2 | < 0.42 µM | 226
Cc1nnc(N2C(=O)C(O)=C(C(=O)c3ccco3)C2c2ccc(C(C)C)cc2)s1 (stereo not drawn) | 2.2 µM | 3.11
CCN(c1ccc(N=Cc2c(O)n(Cc3ccc(OC)cc3)c(=O)c3ccccc23)cc1)C(C)C | 2.17 µM | 132
CC(=O)c1ccc(Nc2c3c(nc4ccccc24)CCCC3)cc1 | > 54 µM (inactive) | 0.95
Cc1ccc(N2C(=O)C3C(C(=O)c4ccccc4)=NN(c4ccccc4)C3C2=O)cc1 (stereo not drawn) | 7.31 µM | 8.5

SMILES | IC50 | fold change
CC(C)c1cc(=O)oc2c3c4c(cc12)CCCN4CCC3 | 1.88 µM | 5.95
COc1ccccc1N1C(=O)C2C(C(=O)c3ccccc3)=NN(c3ccc(C)cc3)C2C1=O (stereo not drawn) | 3.66 µM | 19.5
COc1ccc2nc(-n3c(O)c(C4=c5ccccc5=NC4=O)[nH]c3=S)sc2c1 | 3.48 µM | 0.923
Cc1[nH]c(=O)[nH]c(=O)c1S(=O)(=O)N1CCN(c2ccccc2F)CC1 | > 54 µM (inactive) | 1.04
COc1cc(CN2CCN(c3cccc(C)c3C)CC2)cc(OC)c1O | > 54 µM (inactive) | 1.03
C/C=C/C=C/[C@H]1Cc2cc(O)cc(O)c2O1 | 13 µM | 2.04
CN1C(=O)/C(=C\N2CCc3ccccc32)C(=O)NC1=S | > 54 µM (inactive) | 1.14
CCN(CC)S(=O)(=O)c1ccc(C(=O)/C=C/c2ccc(-c3ccc([N+](=O)[O-])cc3)o2)cc1 | 2.97 µM | 12.8
O=C(C1=C(O)C(=O)N(c2nccs2)C1c1ccccc1)c1cc2ccccc2o1 (stereo not drawn) | < 0.42 µM | 161
CCc1ccc(NC(=O)c2ccc3ncsc3c2)cc1 | > 54 µM (inactive) | 0.87
CC1=Nc2ccccc2/C1=C\c1nc(-c2ccc(F)cc2)oc1O | 1.7 µM | 19
CCN(CC)c1ccc(/C=c2/sc3nnc(-c4ccccc4C)n3c2=O)cc1 | 3.39 µM | 17.4
COc1ccc2c(c1)c1nc3ccccc3nc1n2CC(=O)OC(C)C | 1.21 µM | 6.79
Cn1cc(/C=C2\SC(=O)NC2=S)c2ccccc21 | > 54 µM (inactive) | 2.12
C=C1c2cc(OC)ccc2NC(=O)N1CC | 8.9 µM | 1.91
COc1ccc2nc(N3C(=O)/C(=C/c4ccc(Cl)cc4)NC3=S)sc2c1 | > 54 µM (inactive) | 1.37
COc1ccc(NC(=O)c2sc3nc(-c4cccnc4)ccc3c2N)cc1 | 2.44 µM | 6.91
CC(=O)Nc1nc(C)c(-c2csc(Nc3cccc([N+](=O)[O-])c3)n2)s1 | > 54 µM (inactive) | 0.71
CCN(CC)c1ccc2cc(C(=O)NNC(=O)c3ccc(S(=O)(=O)N4CCCCC4)cc3)c(=O)oc2c1 | 3.01 µM | 87.1
COc1cccc(C2C3CN(C)CC=C3C(C#N)=C(N)C2(C#N)C#N)c1OC (stereo not drawn) | 0.83 µM | 9.89
COc1ccc(C2C=C(c3ccc(Br)s3)Nc3ncnn32)cc1OC (stereo not drawn) | < 0.42 µM | 24.3
O=C(C1=NN(c2ccccc2)C2C(=O)N(c3ccc(Cl)cc3)C(=O)C12)c1ccccc1 (stereo not drawn) | > 54 µM (inactive) | 5.95
O=C1c2cccc3c(O)ccc(c23)C(=O)N1Cc1ccco1 | < 0.42 µM | 134
C=CCSc1nccc(-c2cc(Cl)sc2Cl)n1 | > 54 µM (inactive) | 0.953
COc1cc(C=C2C(=O)c3ccccc3C2=O)cc(OC)c1OC | > 54 µM (inactive) | 1.06
